Assay results: patent US9850283B2, “Macrocyclic inhibitors of the PD-1/PD-L1 and CD80(B7-1)/PD-L1 protein/protein interactions” (BRISTOL-MYERS SQUIBB COMPANY, priority 2013, dated 2017)
pIC50: −log10 of the molar value. Like-named read-outs stand apart in the source and are kept apart here. Positions of bridges follow the written chain, without caps; N, C: chain ends. Non-standard residues stand in square brackets, D forms with d. Residues, ends and D or L forms follow the SMILES beside them. ξ: configuration not given here. Phe(3-CF3) = N[C@@H](Cc1cccc(C(F)(F)F)c1)C(=O)O; Pro(trans-4-F) = O=C(O)[C@@H]1C[C@@H](F)CN1; Phe(3-Me) = Cc1cccc(C[C@H](N)C(=O)O)c1; Bta = N[C@@H](Cc1csc2ccccc12)C(=O)O; cisHyp = O=C(O)[C@@H]1C[C@H](O)CN1; Hyp = O=C(O)[C@@H]1C[C@@H](O)CN1; NMeF = CN[C@@H](Cc1ccccc1)C(=O)O; NMeNle = CCCC[C@H](NC)C(=O)O; NMeM = CN[C@@H](CCSC)C(=O)O; NMeA = CN[C@@H](C)C(=O)O; Orn = NCCC[C@H](N)C(=O)O; Dab = NCC[C@H](N)C(=O)O; Dap = NC[C@H](N)C(=O)O; ξC = NC(CS)C(=O)O; Sar = CNCC(=O)O

Columns and labels:
[1] = biological target: T1, LK35.2-hPD-L1 cells / PE-labeled PD-1-Ig (Homo sapiens, UniProt Q9NZQ7); experiment: LK35.2-hPD-L1 cell binding high-content screening assay; assay type: cell-based; conditions: cluster symbol, read-out: CBA IC50 cluster
T1 construct: expressed in transfected cells; host or cells: LK35.2 mouse B cell line
Outline: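 Mouse LK35.2 B cells stably over-expressing human PD-L1, cultured overnight, treated with compound plus PE-labeled human PD-1-Ig (1 nM final) in RPMI/10% FCS for 1 h at 37 °C. After washing, bound fluorescence quantified by high-content imaging.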

[2] = biological target: T2, Human PD-L1/PD-1 (Homo sapiens, UniProt Q9NZQ7); experiment: HTRF PD-1-Ig/PD-L1-His binding assay (human PD-L1); conditions: cluster symbol; read-out: HTRF IC50 cluster
T2 construct: made in house; host or cells: HEK293T
Outline: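 Interaction of Fc-tagged soluble PD-1 with His-tagged soluble PD-L1 is monitored by time-resolved FRET. Donor is europium cryptate anti-Ig (1 nM final) and acceptor is APC anti-His (20 nM final). Assay buffer is dPBS with 0.1% BSA and 0.05% Tween-20.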

[3] = cell line of CBA not given (LK35.2-hPD-L1 or 293T-hPD-L1)
[4] = cell binding assay, cell line not given

T2 sequence (Q9NZQ7 with tags, fused parts or gaps): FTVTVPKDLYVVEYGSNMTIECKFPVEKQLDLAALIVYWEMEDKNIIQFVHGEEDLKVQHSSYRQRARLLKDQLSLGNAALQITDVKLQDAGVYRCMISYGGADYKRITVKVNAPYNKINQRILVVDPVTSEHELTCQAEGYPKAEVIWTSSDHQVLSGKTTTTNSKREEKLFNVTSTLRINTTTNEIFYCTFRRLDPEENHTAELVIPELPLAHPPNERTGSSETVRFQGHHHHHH
T1 sequence (Q9NZQ7 19-290): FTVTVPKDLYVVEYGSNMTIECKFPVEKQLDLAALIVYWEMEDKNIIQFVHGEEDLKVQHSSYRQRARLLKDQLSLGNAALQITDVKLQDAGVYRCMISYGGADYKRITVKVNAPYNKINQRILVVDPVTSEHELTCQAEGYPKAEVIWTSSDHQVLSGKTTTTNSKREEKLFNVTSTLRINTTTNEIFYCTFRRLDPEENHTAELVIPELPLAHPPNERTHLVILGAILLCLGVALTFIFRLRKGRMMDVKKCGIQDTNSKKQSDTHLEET

SMILES	pIC50 [1, 3]	pIC50 [2]	pIC50 [1, 4]
CCCC[C@H]1C(=O)N(C)[C@@H](CCCC)C(=O)N[C@@H](CCCNC(=N)N)C(=O)N[C@H](C(=O)NCC(N)=O)CSCC(=O)N[C@@H](Cc2ccc(O)cc2)C(=O)N(C)[C@@H](C)C(=O)N[C@@H](CCCN)C(=O)N2CCC[C@H]2C(=O)N[C@@H](C)C(=O)N[C@@H](CCC(=O)O)C(=O)N2C[C@@H](O)C[C@H]2C(=O)N[C@@H](Cc2c[nH]c3ccccc23)C(=O)N[C@@H](CO)C(=O)N[C@@H](Cc2c[nH]c3ccccc23)C(=O)N1C [Example 1147] ({CH2CO}-Y[NMeA][Orn]PAE[cisHyp]WSW[NMeNle][NMeNle]RCG-NH2; thioether N-14)	7.14 to 8.32	7.52 to 8.17	
CCCC[C@H]1C(=O)N(C)[C@@H](CCCC)C(=O)N[C@@H](CCCNC(=N)N)C(=O)N[C@H](C(=O)NCC(N)=O)CSCC(=O)N[C@@H](Cc2cccc(C(F)(F)F)c2)C(=O)N(C)[C@@H](C)C(=O)N[C@@H](CC(N)=O)C(=O)N2CCC[C@H]2C(=O)N[C@@H](Cc2cnc[nH]2)C(=O)N[C@@H](CC(C)C)C(=O)N2C[C@H](O)C[C@H]2C(=O)N[C@@H](Cc2c[nH]c3ccccc23)C(=O)N[C@@H](CO)C(=O)N[C@@H](Cc2c[nH]c3ccccc23)C(=O)N1C [Example 7056] ({CH2CO}-[Phe(3-CF3)][NMeA]NPHL[Hyp]WSW[NMeNle][NMeNle]RCG-NH2; thioether N-14)		7.52 to 8.17	< 7.13
CCCC[C@H]1C(=O)N(C)CC(=O)N[C@@H](CC(=O)O)C(=O)N[C@@H](C(C)C)C(=O)N[C@@H](Cc2cccc(C)c2)C(=O)N[C@@H](Cc2ccc(O)cc2)C(=O)N(C)CC(=O)N[C@@H](Cc2c[nH]c3ccccc23)C(=O)N[C@@H](Cc2ccc(O)cc2)C(=O)N[C@@H](CC(C)C)C(=O)N[C@H](C(=O)NCC(N)=O)CSCC(=O)N[C@@H](Cc2ccccc2)C(=O)N(C)[C@@H](Cc2ccccc2)C(=O)N1C [Example 3134] ({CH2CO}-F[NMeF][NMeNle][Sar]DV[Phe(3-Me)]Y[Sar]WYLCG-NH2; thioether N-13)	< 7.13	< 7.52	
CCCC[C@H]1C(=O)N(C)[C@@H](CCCC)C(=O)N[C@@H](CCCNC(=N)N)C(=O)NC(C(=O)N[C@@H](CO)C(N)=O)CSCC(=O)N[C@@H](Cc2ccc(O)cc2)C(=O)N(C)[C@@H](C)C(=O)N[C@@H](CC(N)=O)C(=O)N2CCC[C@H]2C(=O)N[C@@H](Cc2cnc[nH]2)C(=O)N[C@@H](CO)C(=O)N2CCC[C@H]2C(=O)N[C@@H](Cc2c[nH]c3ccccc23)C(=O)N[C@@H](CO)C(=O)N[C@@H](Cc2csc3ccccc23)C(=O)N1C (some centres unmarked) [Example 9076] ({CH2CO}-Y[NMeA]NPHSPWS[Bta][NMeNle][NMeNle]R[ξC]S-NH2; thioether N-14)		8.17 to 9.41	7.14 to 8.32
CCCC[C@H]1C(=O)N(C)[C@@H](CCCC)C(=O)N[C@@H](CC(C)C)C(=O)N[C@H](C(=O)NCC(N)=O)CSCC(=O)N[C@@H](Cc2ccc(O)cc2)C(=O)N(C)[C@@H](C)C(=O)N[C@@H](CC(N)=O)C(=O)N2CCC[C@H]2C(=O)N[C@@H](Cc2cnc[nH]2)C(=O)N[C@@H](CC(C)C)C(=O)N2C[C@H](O)C[C@H]2C(=O)N[C@@H](Cc2c[nH]c3ccccc23)C(=O)N[C@@H](CO)C(=O)N[C@@H](Cc2c[nH]c3ccccc23)C(=O)N1C [Example 6025]		8.17 to 9.41	8.33 to 9.80

Results, then the molecule that gave them:

pIC50 [1, 3]	pIC50 [2]	pIC50 [1, 4]	SMILES
	8.17 to 9.41	8.33 to 9.80	CCCC[C@H]1C(=O)N(C)[C@@H](CCCC)C(=O)N[C@@H](C)C(=O)N[C@H](C(=O)NCC(N)=O)CSCC(=O)N[C@@H](Cc2ccc(O)cc2)C(=O)N(C)[C@@H](C)C(=O)N[C@@H](CC(=O)O)C(=O)N2CCC[C@H]2C(=O)N[C@@H](Cc2c[nH]cn2)C(=O)N[C@@H](CCC(=O)O)C(=O)N2C[C@H](F)C[C@H]2C(=O)N[C@@H](Cc2c[nH]c3ccccc23)C(=O)N[C@@H](CCN)C(=O)N[C@@H](Cc2c[nH]c3ccccc23)C(=O)N1C [Example 13002] ({CH2CO}-Y[NMeA]DPHE[Pro(trans-4-F)]W[Dab]W[NMeNle][NMeNle]ACG-NH2; thioether N-14)
	8.17 to 9.41	8.33 to 9.80	CCCC[C@H]1C(=O)N(C)[C@@H](CCSC)C(=O)N[C@@H](C)C(=O)NC(C(=O)NCC(N)=O)CSCC(=O)N[C@@H](Cc2ccc(O)cc2)C(=O)N(C)[C@@H](C)C(=O)N[C@@H](CC(N)=O)C(=O)N2CCC[C@H]2C(=O)N[C@@H](CN)C(=O)N[C@@H](CC(C)C)C(=O)N2CCC[C@H]2C(=O)N[C@@H](Cc2c[nH]c3ccccc23)C(=O)N[C@@H](CO)C(=O)N[C@@H](Cc2csc3ccccc23)C(=O)N1C (some centres unmarked) [Example 9086] ({CH2CO}-Y[NMeA]NP[Dap]LPWS[Bta][NMeNle][NMeM]A[ξC]G-NH2; thioether N-14)
